System: human iPS cells (S2WCB1 strain, S2WCB3 strain)
Test: Efficiency of cerebral organoid formation after step (1) maintenance culture and induction of differentiation
Type: cell-based
Set-up: Efficiency of cerebral organoid formation (%): concentration or dose not given beside the values
Conditions: for Efficiency (%) of cerebral organoid formation: -Day 1 to Day 0, evaluated Day 35
Experimental: Step (1) and step (2) were performed according to a scheme illustrated in FIG. 3 or FIG. 5. Maintenance culture of human iPS cells (S2WCB1 strain, S2WCB3 strain) was performed in StemFit culture medium on a 6-well plate coated with iMatrix-511 (feeder-free).
The culture medium was exchanged with: • (1) a culture medium obtained by adding 5 μM SB431542 to StemFit culture medium without solution C (i.e., a bFGF-free culture medium) (FIG. 3); or • (2) Essential 6 culture medium (i.e., a bFGF-free, TGFβ-free culture medium) (FIG. 5), • and adhesion culture was performed for 1 day.
Step (2a) Induction of differentiation into neural cells was performed in a serum-free culture medium by using a method by Sakaguchi et al. (Stem Cell Reports, 13:458-473, 2019. doi: 10.1016/j.stemcr.2019.05.029.). Specifically, human iPS cells cultured in step (1) were dispersed into single cells by enzymatic treatment. The human iPS cells dispersed into single cells were seeded on a non-cell-adhesive 96-well culture plate (PrimeSurface 96 V-bottom plate, manufactured by Sumitomo Bakelite Co., Ltd.) (9,000 cells/well/100 μL), and subjected to suspension culture with Glasgow MEM (GMEM; Thermo Fisher Scientific Inc.) culture medium supplemented with 0.1 mM non-essential amino acids, 1 mM pyruvate, 0.1 mM 2-mercaptoethanol, 20% (v/v) KnockOut (TM) serum replacement, 100 U/mL penicillin, and 100 μg/ml streptomycin (hereinafter, also referred to as 20GMK) with further addition of 5 μM SB431542 (TGFβ signaling inhibitor; Tocris Bioscience) and 3 μM IWR1e (Wnt signaling inhibitor; Calbiochem), at 37° C. under 5% CO2 for 18 days. Culture medium exchange was performed every 3 days. Y-27632 was added to reach 50 μM on Day 0, and not added in the subsequent culture medium exchanges. Through the culture, cell aggregates were eventually obtained.
Step (2b) On Day 18, the cell aggregates obtained were transferred into a 90-mm dish, and subjected to shaking culture with an Orbital Shaker in DMEM/F12/GlutaMAX culture medium supplemented with 1×N2 supplement (Thermo Fisher Scientific Inc.), a chemically defined lipid concentrate (Invitrogen), 0.25 mg/mL fungizone (Gibco), 1% penicillin/streptomycin, and 0.1% amphotericin B at 37° C. under 20% 02 and 5% CO2 from Day 35 to Day 42. Culture medium exchange was performed every 3 to 4 days.
Efficiency (%) of cerebral organoid formation was calculated by the following expression.
In step (1) of the scheme in FIG. 3, culture was performed with a culture medium supplemented with any additive below during a period of −Day 1 to Day 0, induction of differentiation into neural cells was performed on Day 0, and the efficiencies of cerebral organoid formation were evaluated on Day 35. […] In FIG. 7, “None” indicates the absence of an additive.
Under the experimental system with (1) “bFGF-free-and-SB431542-supplemented culture medium”, which was obtained by adding 5 μM SB431542 to StemFit culture medium without solution C, in Example 1, periods for culture of iPS cells with “bFGF-free-and-SB431542-supplemented culture medium” were set as in a table below.

[1] = step (1) in bFGF-containing culture medium (StemFit with solution C)
[2] = step (1) in bFGF-free culture medium (StemFit without solution C)

Row | Compound | Efficiency of cerebral organoid formation (%) (step (1) in Essential 6 (E6) culture medium supplemented with SB431542) | Efficiency (%) of cerebral organoid formation [1] | Efficiency (%) of cerebral organoid formation (step (1) in bFGF-containing culture medium (StemFit with solution C), listed as SB-431542) [%] | Efficiency (%) of cerebral organoid formation [2] | structure of cell culture on Day 35 (immunostaining) (additive in bFGF-free culture medium in step (1) (Exp. F))
1 | NC(=O)c1ccc(-c2nc(-c3ccc4c(c3)OCO4)c(-c3ccccn3)[nH]2)cc1 [SB431542, 4-[4-(1,3-benzodioxol-5-yl)-5-(2-pyridinyl)-1H-imidazol-2-yl]-benzamide] | 56.9 | less than 5% | <5 | high efficiency | 
2 | O=C(Nc1cccc2cccnc12)c1ccc(N2C(=O)[C@@H]3[C@H](C2=O)[C@@H]2C=C[C@H]3C2)cc1 [IWR1e, 4-[(3aR,4S,7R,7aS)-1,3,3a,4,7,7a-hexahydro-1,3-dioxo-4,7-methano-2H-isoindol-2-yl]-N-8-quinolinyl-benzamide] |  | <1% |  | <5% | no cerebral cortex-like structure was formed
3 | c1ccc2c(-c3cnn4cc(-c5ccc(N6CCNCC6)cc5)cnc34)ccnc2c1 [LDN-193189] |  |  |  | <5% | 

From patent US20240279602A1, “METHOD FOR PRODUCING CEREBRAL CORTICAL CELL PREPARATION DERIVED FROM HUMAN PLURIPOTENT STEM CELLS” (Kyoto University, priority 2021, published 2024)
